Measurements taken from PMC3462190, “A Peptidic Unconjugated GRP78/BiP Ligand Modulates the Unfolded Protein Response and Induces Prostate Cancer Cell Death” (PLoS ONE, 2012).
Where no end group is shown, it is not given here.

What was measured:
[1] = molecular target: T1, GST-fused GRP78 substrate binding domain (Homo sapiens, UniProt P11021); assay: Fluorescence polarization competition assay; details: displacement of 10 nM FITC-labeled Bag-1 7-mer from 0.75 mg/ml GST-GRP78 SBD; competitor 100 µM to 0.1 nM, Tris-GSH buffer
T1 construct: GRP78-SBD (GRP78 409–651); made in house
Protocol: Fluorescence polarization assays were carried out using an Infinite F-200 reader (Tecan) with excitation at 490 nm and emission at 535 nm.
Figure 6 Selectivity of action of the Bag-1 peptide. A Amino acid sequence of the 19mer peptide and its deletion mutants. B GST pull-down assay performed incubating 400 µg of 22Rv.1 cell lysate and 25 µg of GST-fused deletion mutants of the 19mer peptide. After the pull-down experiment, Western blots were carried out with anti-GRP78/BiP and GST antibodies. C. Fluorescence polarization (FP) assays with a 10 nM FITC-labeled 7-mer Bag-1 peptide and dilutions of the GST-fused substrate binding domain of GRP78 in 60 µl of Tris-GSH buffer (50 mM Tris, 10 mM reduced glutathione and 0.1% BSA, pH 8.0). Triplicate samples were measured after 5 h of incubation at room temperature with an Infinite F-200 reader (Tecan) with excitation at 490 nm and emission at 535 nm. Binding constants were determined from three independent experiments using non-linear regression in Sigma Plot 10.0. D. Competition assays with a complex of 10 nM of FITC-labeled Bag-1 7-mer peptide and 0.75 mg/ml GST-fused GRP78 substrate binding domain was measured against a dilution series from 100 µM to 0.1 nM of wild-type Bag-1 7-mer peptide (filled line) or triple mutant peptide (dotted line) in 40 µl of Tris-GSH buffer. […] The colonies were stained and quantified. […]

[2] = tested on: unfolded protein response in 22Rv.1 cells; assay: UPR modulation, Western blot / PCR in 22Rv.1 cells; format: cell-based
Protocol: Unless otherwise stated, stable transfection was carried out in 22Rv.1 or BPH-1 cells with 10 µg of plasmid DNA using FuGene 6™ (Roche Diagnostics Mannheim, Germany) Stably transfected 22Rv.1 cells were selected with 0.8 mg/ml while BPH-1 cell clones were selected with 1.2 mg/ml G418. LNCaP, PC3, DU145, PNT-2 and RWPE-1 cell clones were selected with 1 mg/ml G418. Specific downregulation of GRP78 expression was achieved by transfecting siRNA-duplexes (GRP78∶5′-[…]-3′) twice in 72 h using HiPerfect™ (Qiagen Hilden, Germany). siRNA against GFP (5′-[…]-3′) was used as a control. Western blot analysis was performed as previously described.
Figure 3 The Bag-1 peptide modulates the UPR and sensitizes 22Rv.1 cells to ER-stress. A. UPR modulation upon Bag-1 peptide overexpression. Pooled clones of 22Rv.1 cells transfected with pcDNA3.1-HA-Bag-1 68 amino acid peptide or an empty expression vector were treated with 300 nM thapsigargin (TG) for the indicated time points. Cells were lysed and subjected to Western blot analysis using the indicated antibodies or phospho-specific antibodies. B. The Bag-1 peptide sensitizes 22Rv.1 cells to ER-stress induced apoptosis. Pooled clones of 22Rv.1 transfected with the Bag-1 peptide or the empty expression vector were treated with thapsigargin (TG) or glucose-starved (GS) for 24 h. The cells were lysed and subjected to Western blot analysis using anti-PARP and caspase 4 specific antibodies. Anti-HA antibody was used to detect the HA-Bag-1 peptide. […] C. […] Pooled clones of 22Rv.1 expressing HA-tagged Bag-1 peptide or an empty expression vector were transfected with GRP78/BiP siRNA or control GFP siRNA. The cells were lysed and Western blot was carried out with anti-PARP, anti-GRP78 and anti-HA antibodies. β-actin antibody was used to determine the level of protein loaded on the gel.
(§1) A. Real time PCR analysis of ATF6 gene expression following thapsigargin (300 nM) treatment for the indicated time points in 22Rv.1 cell clones with empty vector control (open bars) and peptide-expressing clones (filled bars). The RNA was extracted using PeqGold RNA pure (PeqLab, Germany) kit according to manufacturer’s instructions. For gene expression analysis, the following primers were used: Rib36 forward 5′-[…]-3′; reverse 5′-CCGGATATGAGGCAGCAG-3′; ATF6 forward 5′-[…]-3′; reverse 5′-[…]-3′. Each bar represents the mean of three independent experiments ± SEM. *p<0.05. B. Western blot analysis of ATF6 and its cleaved product (cATF6) in LNCaP cells stably expressing the empty vector control or the Bag-1 peptide. Anti-ATF6 specific antibody and an anti-HA specific antibody were used for the Western blot. β-actin antibody was used to determine equal loading control. Mouse monoclonal anti-ATF6 antibody was purchased from Imgenex (Hamburg, Germany), mouse monoclonal anti-HA antibody (HA.11 clone 16B12) was purchased from Covance (Munich, Germany) and anti-β-actin antibody was purchased from Abcam (Cambridge, UK). (TIF) Click here for additional data file.
Supplementary file pone.0045690.s004.tif: Figure S4 The Bag-1 peptide induces GCN2 phosphorylation. 22Rv.1 cells stably expressing the empty vector control or the Bag-1 peptide were treated with thapsigargin (300 nM) for 16 h and subjected to Western blot analysis using anti-phospho-GCN2, GCN2 and HA-specific antibodies. The filters used in this experiment for the GCN2 signals are the same filters used in Figure 3A. The HA-Bag-1 peptide and the β-actin signals are therefore identical to that of Figure 3A. (TIF) Click here for additional data file.

[3] = tested on: LNCaP prostate cancer cells; assay: ATF6 Western blot in LNCaP cells; format: cell-based; details: thapsigargin
Protocol: as §1

22Rv.1 cells = assay: Clonogenic assay; format: cell-based; details: neomycin selection, colonies quantified; mean ± SEM of at least three independent experiments
Source text: Figure 5 An N-terminal unfolded fragment of the Bag-1 peptide is sufficient to reduce tumor cell growth. A. Schematic diagram of the Bag-1 peptide and its deletion mutants. The ubiquitin-like domain is represented in blue and the BAG domain in red. The numbers refer to the amino acid positions of the different domains. The amino acid residues are numbered following the numbering for Bag-1L. B. Prediction of the secondary structure of the Bag-1 peptide, showing an N-terminal β-hairpin from the ubiquitin-like domain (blue) and a C-terminal α-helix from the BAG domain (red). C. Normalized circular dichroism spectra of the Bag-1 peptides. 30 µM of the Bag-1 peptide were measured in 20 mM KHPO4 buffer, pH 6.8 (black line). Its α-helical content was estimated to be approximately 25% by deconvolution of the spectra (red line). 12 µM of the N-term peptide (green line) and 11 µM of C-term (blue line) were measured under the same conditions. D. ^1H^15N-HSQC NMR spectrum of ^15N-labeled Bag-1 peptide (202–269) in 20 mm KHPO4 buffer, pH 6.8, at 23°C. […] The Hδ and Hε side chain signals of asparagine and glutamine are connected by thin lines. E. The N-terminal region of the Bag-1 peptide is important for GRP78 binding. 400 µg of 22Rv.1 cell lysate were incubated with glutathione-agarose beads carrying 15 µg GST-N-term peptide (lane 2), GST-C-term peptide (lane 3), GST-ΔUbi peptide (lane 4), GST-Bag-1(202–269) peptide (lane 5) and GST (lane 6). The beads were washed and the bound proteins were separated by 10% SDS-PAGE and subjected to Western blotting using antibodies directed against GRP78 or GST. […] F. Clonogenic assay of the Bag-1 peptides expressed in 22Rv.1 cells. Cells transfected with the indicated constructs were selected in medium containing neomycin and the colonies formed were quantified. Shown are the mean value ±SEM of at least three independent experiments using three different plasmid preparations (*p<0.05). […] Six-week old athymic nude mice were injected subcutaneously on both flanks with 5×10^6 cells of each stable clone. Tumor size was measured once per week using a caliper and expressed as tumor volume in mm^3. Shown are the tumor volumes of clones transfected with the N-terminal peptide (G), the C-terminal peptide (H) and the ΔUbi peptide (I). Each point represents the mean volume and standard deviation of at least 5 to 10 tumors.
Figure 6 Selectivity of action of the Bag-1 peptide. A Amino acid sequence of the 19mer peptide and its deletion mutants. B GST pull-down assay performed incubating 400 µg of 22Rv.1 cell lysate and 25 µg of GST-fused deletion mutants of the 19mer peptide. After the pull-down experiment, Western blots were carried out with anti-GRP78/BiP and GST antibodies. C. Fluorescence polarization (FP) assays with a 10 nM FITC-labeled 7-mer Bag-1 peptide and dilutions of the GST-fused substrate binding domain of GRP78 in 60 µl of Tris-GSH buffer (50 mM Tris, 10 mM reduced glutathione and 0.1% BSA, pH 8.0). Triplicate samples were measured after 5 h of incubation at room temperature with an Infinite F-200 reader (Tecan) with excitation at 490 nm and emission at 535 nm. Binding constants were determined from three independent experiments using non-linear regression in Sigma Plot 10.0. D. Competition assays with a complex of 10 nM of FITC-labeled Bag-1 7-mer peptide and 0.75 mg/ml GST-fused GRP78 substrate binding domain was measured against a dilution series from 100 µM to 0.1 nM of wild-type Bag-1 7-mer peptide (filled line) or triple mutant peptide (dotted line) in 40 µl of Tris-GSH buffer. FITC-peptide and the FITC-peptide-protein complex were used as controls. Fluorescence polarization was determined as described above and IC50 values were determined in Sigma Plot. […]

[4] = molecular target: T2, GST-fused GRP78-SBD (GRP78 409-651) (UniProt P11021 409-651); assay: fluorescence polarisation; 10 nM FITC-labeled 7-mer peptide with dilutions of GST-fused GRP78 SBD in Tris-GSH buffer (50 mM Tris, 10 mM reduced glutathione, 0.1% BSA, pH 8.0), 5 h at room temperature; details: both partners purified
T2 construct: Used on beads in pull-downs and in solution (GST kept) in fluorescence polarisation; also called GST-GRP78(SBD); source: bacterially purified GST fusion (pGEX4T.1)

[5] = molecular target: T2, GST-fused GRP78-SBD (GRP78 409-651); assay: fluorescence polarisation; competition: complex of 10 nM FITC-labeled 7-mer peptide and 0.75 mg/ml GST-fused GRP78 SBD against 100 µM to 0.1 nM unlabeled peptide in Tris-GSH buffer; details: both partners purified

T2 sequence (P11021 409-651): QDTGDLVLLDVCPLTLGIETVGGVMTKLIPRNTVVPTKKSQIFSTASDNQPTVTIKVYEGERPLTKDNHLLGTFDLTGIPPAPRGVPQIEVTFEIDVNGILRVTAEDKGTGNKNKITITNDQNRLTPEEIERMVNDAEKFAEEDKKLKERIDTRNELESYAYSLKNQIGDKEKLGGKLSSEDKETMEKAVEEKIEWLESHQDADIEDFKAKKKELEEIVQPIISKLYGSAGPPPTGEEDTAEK
T1 sequence (P11021 409-651): as above

**Q.** How did the IC50 [1] turn out when RAAAIGK [RAAAIGK] was run?
**A.** The IC50 was over 100 µM.

**Q.** How did the ATF6 expression ([2]; 22Rv.1 cells, thapsigargin 300 nM) turn out when `C/C=C(/C)C(=O)O[C@H]1C(C)=C2[C@H]([C@@H]1OC(=O)CCCCCCC)[C@@](C)(OC(C)=O)C[C@H](OC(=O)CCC)[C@@]1(O)[C@H]2OC(=O)[C@@]1(C)O` [thapsigargin, reference compound] was run?
**A.** The ATF6 expression was “enhanced the expression of this gene”.

**Q.** What about the UPR activation ([2]; 22Rv.1 vector control cells, 300 nM thapsigargin) of the same molecule?
**A.** The UPR activation was “all three arms of the UPR were activated”.

**Q.** And the “ATF6 expression (protein level)” value [3]?
**A.** The value was “also seen in LNCaP prostate cancer cells at the protein level”.

**Q.** “19-mer mutant: 202–220 amino acid peptide with mutated core (VML exchanged with alanine residues) (TPLSALGIQDGCRAAAIGK; also: HA tag, end not given here)” was tested. Which “22Rv.1 growth in clonogenic assay” value (22Rv.1 cells) did it give?
**A.** The value was “significantly reduced the ability of the 19 amino acid sequence to inhibit 22Rv.1 cell growth”.

B1: FITC-labeled 7-mer Bag-1 peptide (214RVMLIGK220) (peptide)
peptide: RVMLIGK
modifications: also: FITC label, place not given here
notes: core peptide of Bag-1, residues 214-220 on Bag-1L numbering; also called FITC-peptide
**Q.** B1 was tested. Which Kd [4] did it give?
**A.** Its Kd is 5.7 ± 0.8 µM.

B2: wild-type Bag-1 7-mer peptide (214RVMLIGK220), unlabeled (peptide)
peptide: RVMLIGK
notes: core peptide of Bag-1, residues 214-220 on Bag-1L numbering; also called seven amino acid core peptide
**Q.** Which IC50 [5] does the source give for B2 here?
**A.** Its IC50 is 2.6 ± 0.5 µM.

**Q.** For RAAAIGK [triple mutant Bag-1 7-mer peptide (214RAAAIGK220)], which IC50 [5] is on record?
**A.** The IC50 was over 100 µM.
